Assay results taken from patent US20260262691A1, “USE OF VANILLYL ETHERS TO MODIFY FLAVOR” (Firmenich Incorporated, priority 2023, published 2026).

How the values were obtained:
[1] = Sensory panel rating of bitterness and astringency of liquid pea protein concentrate with vanillyl ethers; format: in vivo; settings: pea protein 3 percent by weight in water, without sugar; vanillyl ether 0.5 ppm; sensory panelists, scale from 0 to 10
Method: Liquid pea protein concentrate compositions were prepared (3 percent by weight in water) without sugar added. Control and test samples were prepared. To two test samples vanillyl ethyl ether (VEE) and vanillyl butyl ether (VBE) were added, respectively, at a concentration of 0.5 ppm. The control and test samples were evaluated by sensory panelists to rate the bitterness and astringency of the control sample and the two test samples on a scale from 0 to 10. Table 2 reports the mean difference between the bitterness and astringency scores between the control sample and each of the two test samples.

[2] = Sensory panel rating of characteristics of lemon tea beverage with vanillyl ethers; format: in vivo; settings: lemon tea beverage with Stevia sweetener, VEE 0.5 ppm (phloretin 8 ppm where combined), scale from 0 to 10, higher = more intense
Method: Samples of a lemon tea beverage were prepared.
Two test samples were prepared by adding (a) vanillyl ethyl ether (VEE) at a concentration of 0.5 ppm, and (b) vanillyl ethyl ether (VEE) at a concentration of 0.5 ppm and phloretin at a concentration of 8 ppm. The control and test samples were evaluated by sensory panelists to rate various characteristics of the control sample and the two test samples on a scale from 0 to 10.

| SMILES | Astringency: mean difference between scores of control sample and test sample [1] | Bitterness: mean difference between scores of control sample and test sample [1] | Off Note Intensity (mean score) ([2]; control 2.9) | Astringency (mean score) ([2]; control 3.0) | Mouthfeel (mean score) ([2]; control 3.1) | Bitterness (mean score) ([2]; control 3.8) | Unfront Sweetness (mean score) ([2]; control 4.5) | Lemon Flavor (mean score) ([2]; control 4.6) | Lingering Sweetness (mean score) ([2]; control 4.9) | Peak Sweetness (mean score) ([2]; control 5.4) |
| --- | --- | --- | --- | --- | --- | --- | --- | --- | --- | --- |
| CCCCOCc1ccc(O)c(OC)c1 [VBE, 4-(butoxymethyl)-2-methoxyphenol] | −2.2 | −1.0 | – | – | – | – | – | – | – | – |
| CCOCc1ccc(O)c(OC)c1 [VEE, 4-(ethoxymethyl)-2-methoxyphenol] | −1.5 | −0.5 | 2.4 | 2.1 | 3.5 | 2.7 | 4.7 | 4.8 | 4.0 | 5.4 |
